The supplement of paper PMC10307832

Legend:
Assay in all cases: relative viability (nuclei count vs DMSO), 5 days (fraction); higher = more cells survive
ABC-1 = tested on: ABC-1
How it was run: (§1)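 Lung cancer cell lines in 1536-well plates were dosed by pin tool the day after seeding, either with one drug alone or with a fixed anchor-drug dose plus five library-drug doses (not always all listed) in √10 steps. After 5 days, cells were fixed and their nuclei stained in one step (final 0.05% Triton X-100, 1% formaldehyde, 1 ug/ml Hoechst), then counted on 4× images. Relative viability is the nuclei count in treated wells divided by that in vehicle wells. Values are medians of duplicate plates.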

COR-L23 = tested on: COR-L23
How it was run: as §1

EPLC-272H = tested on: EPLC-272H
How it was run: as §1

HARA = tested on: HARA
How it was run: as §1

HCC-15 = tested on: HCC-15
How it was run: as §1

HCC-78 = tested on: HCC-78
How it was run: as §1

LC-2-ad = tested on: LC-2-ad
How it was run: as §1

LU99A = tested on: LU99A
How it was run: as §1

NCI-H1651 = tested on: NCI-H1651
How it was run: as §1

NCI-H1915 = tested on: NCI-H1915
How it was run: as §1

NCI-H1993 = tested on: NCI-H1993
How it was run: as §1

NCI-H2009 = tested on: NCI-H2009
How it was run: as §1

NCI-H2085 = tested on: NCI-H2085
How it was run: as §1

NCI-H2126 = tested on: NCI-H2126
How it was run: as §1

NCI-H2342 = tested on: NCI-H2342
How it was run: as §1

NCI-H2347 = tested on: NCI-H2347
How it was run: as §1

NCI-H358 = tested on: NCI-H358
How it was run: as §1

NCI-H460 = tested on: NCI-H460
How it was run: as §1

NCI-H522 = tested on: NCI-H522
How it was run: as §1

NCI-H650 = tested on: NCI-H650
How it was run: as §1

NCI-H838 = tested on: NCI-H838
How it was run: as §1

PC-14 = tested on: PC-14
How it was run: as §1

SW 1573 = tested on: SW 1573
How it was run: as §1

UMC-11 = tested on: UMC-11
How it was run: as §1

COc1cc(N2CCC(C(N)=O)CC2)ccc1Nc1nc(N)c(Cl)c(Nc2ccccc2S(=O)(=O)C(C)C)n1 [HG-5-88-01] + CC(=O)c1c(C)c2cnc(Nc3ccc(N4CCNCC4)cn3)nc2n(C2CCCC2)c1=O [Palbociclib] (partner 0.5 µM)
relative viability (ABC-1; first compound 0.04 µM): 0.667
relative viability (ABC-1; first compound 0.1265 µM): 0.664
relative viability (ABC-1; first compound 0.4 µM): 0.764
relative viability (ABC-1; first compound 1.265 µM): 0.583
relative viability (ABC-1; first compound 4 µM): 0.626
relative viability (COR-L23; first compound 0.04 µM): 0.383
relative viability (COR-L23; first compound 0.1265 µM): 0.225
relative viability (COR-L23; first compound 0.4 µM): 0.266
relative viability (COR-L23; first compound 1.265 µM): 0.235
relative viability (COR-L23; first compound 4 µM): 0.26
relative viability (EPLC-272H; first compound 0.04 µM): 0.342
relative viability (EPLC-272H; first compound 0.1265 µM): 0.342
relative viability (EPLC-272H; first compound 0.4 µM): 0.335
relative viability (EPLC-272H; first compound 1.265 µM): 0.273
relative viability (EPLC-272H; first compound 4 µM): 0.0966
relative viability (HARA; first compound 0.04 µM): 0.234
relative viability (HARA; first compound 0.1265 µM): 0.177
relative viability (HARA; first compound 0.4 µM): 0.2
relative viability (HARA; first compound 1.265 µM): 0.218
relative viability (HARA; first compound 4 µM): 0.253
relative viability (HCC-15; first compound 0.04 µM): 0.772
relative viability (HCC-15; first compound 0.1265 µM): 0.792
relative viability (HCC-15; first compound 0.4 µM): 0.643
relative viability (HCC-15; first compound 1.265 µM): 0.724
relative viability (HCC-15; first compound 4 µM): 0.432
relative viability (HCC-78; first compound 0.04 µM): 0.465
relative viability (HCC-78; first compound 0.1265 µM): 0.424
relative viability (HCC-78; first compound 0.4 µM): 0.497
relative viability (HCC-78; first compound 1.265 µM): 0.421
relative viability (HCC-78; first compound 4 µM): 0.44
relative viability (LC-2-ad; first compound 0.04 µM): 0.471
relative viability (LC-2-ad; first compound 0.1265 µM): 0.431
relative viability (LC-2-ad; first compound 0.4 µM): 0.449
relative viability (LC-2-ad; first compound 1.265 µM): 0.474
relative viability (LC-2-ad; first compound 4 µM): 0.516
relative viability (LU99A; first compound 0.04 µM): 0.434
relative viability (LU99A; first compound 0.1265 µM): 0.39
relative viability (LU99A; first compound 0.4 µM): 0.384
relative viability (LU99A; first compound 1.265 µM): 0.32
relative viability (LU99A; first compound 4 µM): 0.305
relative viability (NCI-H1651; first compound 0.04 µM): 0.571
relative viability (NCI-H1651; first compound 0.1265 µM): 0.51
relative viability (NCI-H1651; first compound 0.4 µM): 0.517
relative viability (NCI-H1651; first compound 1.265 µM): 0.458
relative viability (NCI-H1651; first compound 4 µM): 0.616
relative viability (NCI-H1915; first compound 0.04 µM): 0.592
relative viability (NCI-H1915; first compound 0.1265 µM): 0.559
relative viability (NCI-H1915; first compound 0.4 µM): 0.588
relative viability (NCI-H1915; first compound 1.265 µM): 0.565
relative viability (NCI-H1915; first compound 4 µM): 0.502
relative viability (NCI-H1993; first compound 0.04 µM): 0.662
relative viability (NCI-H1993; first compound 0.1265 µM): 0.69
relative viability (NCI-H1993; first compound 0.4 µM): 0.793
relative viability (NCI-H1993; first compound 4 µM): 0.564
relative viability (NCI-H2009; first compound 0.04 µM): 0.187
relative viability (NCI-H2009; first compound 0.1265 µM): 0.281
relative viability (NCI-H2009; first compound 0.4 µM): 0.242
relative viability (NCI-H2009; first compound 1.265 µM): 0.216
relative viability (NCI-H2009; first compound 4 µM): 0.224
relative viability (NCI-H2085; first compound 0.04 µM): 0.474
relative viability (NCI-H2085; first compound 0.1265 µM): 0.485
relative viability (NCI-H2085; first compound 0.4 µM): 0.458
relative viability (NCI-H2085; first compound 1.265 µM): 0.465
relative viability (NCI-H2085; first compound 4 µM): 0.552
relative viability (NCI-H2126; first compound 0.04 µM): 0.363
relative viability (NCI-H2126; first compound 0.1265 µM): 0.352
relative viability (NCI-H2126; first compound 0.4 µM): 0.378
relative viability (NCI-H2126; first compound 1.265 µM): 0.332
relative viability (NCI-H2126; first compound 4 µM): 0.372
relative viability (NCI-H2342; first compound 0.04 µM): 0.557
relative viability (NCI-H2342; first compound 0.1265 µM): 0.54
relative viability (NCI-H2342; first compound 0.4 µM): 0.471
relative viability (NCI-H2342; first compound 4 µM): 0.539
relative viability (NCI-H2347; first compound 0.04 µM): 0.439
relative viability (NCI-H2347; first compound 0.1265 µM): 0.417
relative viability (NCI-H2347; first compound 0.4 µM): 0.467
relative viability (NCI-H2347; first compound 1.265 µM): 0.431
relative viability (NCI-H2347; first compound 4 µM): 0.425
relative viability (NCI-H358; first compound 0.04 µM): 0.139
relative viability (NCI-H358; first compound 0.1265 µM): 0.131
relative viability (NCI-H358; first compound 0.4 µM): 0.118
relative viability (NCI-H358; first compound 1.265 µM): 0.0962
relative viability (NCI-H358; first compound 4 µM): 0.0785
relative viability (NCI-H460; first compound 0.04 µM): 0.171
relative viability (NCI-H460; first compound 0.1265 µM): 0.155
relative viability (NCI-H460; first compound 0.4 µM): 0.0931
relative viability (NCI-H460; first compound 1.265 µM): 0.247
relative viability (NCI-H460; first compound 4 µM): 0.274
relative viability (NCI-H522; first compound 0.04 µM): 1.06
relative viability (NCI-H522; first compound 0.1265 µM): 1.03
relative viability (NCI-H522; first compound 0.4 µM): 1.01
relative viability (NCI-H522; first compound 1.265 µM): 0.829
relative viability (NCI-H522; first compound 4 µM): 0.851
relative viability (NCI-H650; first compound 0.04 µM): 0.398
relative viability (NCI-H650; first compound 0.1265 µM): 0.341
relative viability (NCI-H650; first compound 0.4 µM): 0.338
relative viability (NCI-H650; first compound 1.265 µM): 0.303
relative viability (NCI-H650; first compound 4 µM): 0.296
relative viability (NCI-H838; first compound 0.04 µM): 0.189
relative viability (NCI-H838; first compound 0.1265 µM): 0.207
relative viability (NCI-H838; first compound 0.4 µM): 0.173
relative viability (NCI-H838; first compound 1.265 µM): 0.177
relative viability (NCI-H838; first compound 4 µM): 0.168
relative viability (PC-14; first compound 0.04 µM): 0.545
relative viability (PC-14; first compound 0.1265 µM): 0.611
relative viability (PC-14; first compound 0.4 µM): 0.464
relative viability (PC-14; first compound 1.265 µM): 0.221
relative viability (PC-14; first compound 4 µM): 0.0845
relative viability (SW 1573; first compound 0.04 µM): 0.412
relative viability (SW 1573; first compound 0.1265 µM): 0.369
relative viability (SW 1573; first compound 0.4 µM): 0.337
relative viability (SW 1573; first compound 1.265 µM): 0.257
relative viability (SW 1573; first compound 4 µM): 0.277
relative viability (UMC-11; first compound 0.04 µM): 0.321
relative viability (UMC-11; first compound 0.1265 µM): 0.369
relative viability (UMC-11; first compound 0.4 µM): 0.297
relative viability (UMC-11; first compound 1.265 µM): 0.348
relative viability (UMC-11; first compound 4 µM): 0.308
